Measurements: ChEMBL document CHEMBL1201862, “PubChem BioAssay data set” (2004)
The source made the active and inactive calls.

Legend:
[1] = molecular target: T1, Caspase-3 (Homo sapiens, UniProt P42574); type: functional;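 note: Dose-response selectivity test against caspase-3 for candidate inhibitors of sentrin-specific proteases (SENPs)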
T1 sequence (P42574 whole entry): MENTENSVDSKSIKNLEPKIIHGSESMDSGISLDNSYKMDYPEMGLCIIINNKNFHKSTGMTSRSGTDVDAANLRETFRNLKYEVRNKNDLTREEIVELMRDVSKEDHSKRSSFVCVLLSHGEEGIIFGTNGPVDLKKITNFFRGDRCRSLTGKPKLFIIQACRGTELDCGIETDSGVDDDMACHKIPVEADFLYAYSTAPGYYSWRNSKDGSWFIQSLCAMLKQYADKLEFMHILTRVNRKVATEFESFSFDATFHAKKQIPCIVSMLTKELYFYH

[2] = molecular target: T2, Sentrin-specific protease 7 (Homo sapiens, UniProt Q9BQF6); type: functional;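 note: Luminescence-based dose-response confirmation of ultra-high-throughput screening hits, measuring inhibition of SENP7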
T2 sequence (Q9BQF6 whole entry): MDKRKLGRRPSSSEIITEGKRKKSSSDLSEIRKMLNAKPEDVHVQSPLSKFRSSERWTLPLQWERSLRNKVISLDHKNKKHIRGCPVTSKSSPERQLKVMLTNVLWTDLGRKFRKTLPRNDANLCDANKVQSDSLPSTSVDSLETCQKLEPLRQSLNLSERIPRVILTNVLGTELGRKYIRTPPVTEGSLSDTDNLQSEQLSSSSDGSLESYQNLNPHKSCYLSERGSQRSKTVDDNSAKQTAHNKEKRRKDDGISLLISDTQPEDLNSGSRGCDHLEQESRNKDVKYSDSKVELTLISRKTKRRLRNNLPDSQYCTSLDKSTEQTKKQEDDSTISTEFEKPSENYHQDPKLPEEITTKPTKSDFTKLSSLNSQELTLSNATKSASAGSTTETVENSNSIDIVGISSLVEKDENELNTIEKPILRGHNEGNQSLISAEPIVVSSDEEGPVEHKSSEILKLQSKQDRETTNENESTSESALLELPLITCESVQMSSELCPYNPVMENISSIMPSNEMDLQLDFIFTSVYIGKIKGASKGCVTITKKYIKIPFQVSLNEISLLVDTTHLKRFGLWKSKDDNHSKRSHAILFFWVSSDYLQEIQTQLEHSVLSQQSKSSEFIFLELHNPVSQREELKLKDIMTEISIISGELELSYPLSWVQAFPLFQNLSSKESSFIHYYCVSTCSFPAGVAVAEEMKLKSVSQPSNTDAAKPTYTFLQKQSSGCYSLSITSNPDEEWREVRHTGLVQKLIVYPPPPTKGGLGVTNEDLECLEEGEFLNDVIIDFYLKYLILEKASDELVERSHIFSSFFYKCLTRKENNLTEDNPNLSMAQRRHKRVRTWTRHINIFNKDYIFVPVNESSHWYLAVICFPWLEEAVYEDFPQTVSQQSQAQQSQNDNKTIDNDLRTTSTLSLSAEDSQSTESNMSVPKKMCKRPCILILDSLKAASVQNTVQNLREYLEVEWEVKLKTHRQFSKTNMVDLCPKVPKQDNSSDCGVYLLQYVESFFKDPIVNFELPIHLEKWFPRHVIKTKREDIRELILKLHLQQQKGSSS

[3] = molecular target: T3, Sentrin-specific protease 6 (Homo sapiens, UniProt Q9GZR1); type: functional;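 note: Luminescence-based dose-response confirmatory assay of SENP6 inhibition, following up an ultra-high-throughput screen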
T3 sequence (Q9GZR1 whole entry): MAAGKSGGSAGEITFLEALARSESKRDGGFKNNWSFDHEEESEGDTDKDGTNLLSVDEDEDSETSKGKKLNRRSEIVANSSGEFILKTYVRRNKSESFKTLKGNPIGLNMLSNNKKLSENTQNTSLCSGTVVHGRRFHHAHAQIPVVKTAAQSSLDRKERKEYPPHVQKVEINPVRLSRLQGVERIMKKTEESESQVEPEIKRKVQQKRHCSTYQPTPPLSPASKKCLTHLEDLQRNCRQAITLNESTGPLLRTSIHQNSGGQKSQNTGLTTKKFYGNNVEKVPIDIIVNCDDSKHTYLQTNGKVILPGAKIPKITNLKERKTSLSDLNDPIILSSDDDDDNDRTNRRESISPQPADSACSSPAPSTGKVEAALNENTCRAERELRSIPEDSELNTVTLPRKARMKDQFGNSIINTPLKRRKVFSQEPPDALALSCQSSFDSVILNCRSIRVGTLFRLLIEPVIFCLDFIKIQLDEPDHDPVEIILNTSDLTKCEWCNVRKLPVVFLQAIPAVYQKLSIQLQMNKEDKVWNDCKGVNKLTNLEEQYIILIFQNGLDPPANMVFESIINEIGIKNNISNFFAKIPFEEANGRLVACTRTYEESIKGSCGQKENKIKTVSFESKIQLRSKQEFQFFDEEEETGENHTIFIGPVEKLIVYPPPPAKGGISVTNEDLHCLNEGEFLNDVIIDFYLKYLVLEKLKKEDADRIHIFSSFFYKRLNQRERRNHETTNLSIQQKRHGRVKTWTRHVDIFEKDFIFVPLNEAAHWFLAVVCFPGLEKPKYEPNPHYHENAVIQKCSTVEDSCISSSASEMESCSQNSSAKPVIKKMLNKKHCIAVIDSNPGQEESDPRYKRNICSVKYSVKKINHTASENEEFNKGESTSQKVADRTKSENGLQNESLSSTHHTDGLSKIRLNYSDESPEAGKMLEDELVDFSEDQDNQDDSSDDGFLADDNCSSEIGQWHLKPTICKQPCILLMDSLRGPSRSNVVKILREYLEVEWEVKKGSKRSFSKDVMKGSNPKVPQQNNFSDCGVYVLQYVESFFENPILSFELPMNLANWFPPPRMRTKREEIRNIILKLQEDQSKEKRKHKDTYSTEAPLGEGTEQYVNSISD

[4] = molecular target: T4, Sentrin-specific protease 8 (Homo sapiens, UniProt Q96LD8); type: functional;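 note: luminescence read-out of SENP8 inhibition, dose-response confirmation following an ultra-high-throughput screen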
T4 sequence (Q96LD8 whole entry): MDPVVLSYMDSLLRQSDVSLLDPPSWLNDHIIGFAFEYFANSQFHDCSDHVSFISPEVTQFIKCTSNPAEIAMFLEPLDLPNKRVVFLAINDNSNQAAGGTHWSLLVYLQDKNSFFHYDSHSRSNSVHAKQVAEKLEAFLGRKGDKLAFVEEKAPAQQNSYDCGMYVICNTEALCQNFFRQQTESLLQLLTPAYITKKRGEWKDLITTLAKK

[5] = molecular target: Beta-lactamase (Salmonella choleraesuis (strain SC-B67), UniProt Q5J463); experiment: Epi-absorbance-based counterscreen for selective VIM-2 inhibitors: dose response biochemical high throughput screening assay to identify inhibitors of TEM-1 serine-beta-lactamase.
[6] = molecular target: T5, Beta-lactamase (Pseudomonas aeruginosa, UniProt Q79MP6); experiment: inhibition of IMP-1 beta-lactamase activity – biochemical, epi-absorbance, selectivity assay for VIM-2 inhibitor project, dose response (AID 1920)
[7] = molecular target: T5, Beta-lactamase; experiment: […] counterscreen for selective VIM-2 inhibitors: dose response biochemical high throughput screening assay to identify inhibitors of IMP-1 metallo-beta-lactamase.
[8] = molecular target: T6, Fatty acid synthase (Homo sapiens, UniProt P49327); experiment: inhibition of human FAS-TE enzyme activity – biochemical, endpoint fluorescence intensity, uHTS hits, dose response (AID 624327); type: functional;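 note: fluorescence from hydrolysis of an O-methyl fluorescein acyl ester substrate by the enzyme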
[9] = molecular target: T6, Fatty acid synthase; experiment: inhibition of human FAS-TE enzyme activity – biochemical, kinetic fluorescence intensity, dose response (AID 624326); type: functional;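 note: rate of fluorescence rise from hydrolysis of a fluorogenic O-methyl fluorescein ester substrate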
[10] = molecular target: T7, Endoribonuclease toxin MazF (Escherichia coli K-12, UniProt P0AE70); experiment: activation of MazEF endoribonuclease cleavage – biochemical, fluorescence, single-stranded RNA substrate, uHTS hits, dose response (AID 588481); type: functional
T7 sequence (P0AE70 whole entry): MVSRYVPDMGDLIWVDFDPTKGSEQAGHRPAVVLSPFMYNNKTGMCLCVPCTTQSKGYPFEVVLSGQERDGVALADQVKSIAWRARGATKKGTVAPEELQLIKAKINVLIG

[11] = molecular target: T7, Endoribonuclease toxin MazF; experiment: substrate-only fluorescence increase artefacts – biochemical, single-stranded RNase substrate, counter-screen for MazEF activator project, dose response (AID 588502); type: functional
[12] = system: P388/ADR; experiment: cells; type: functional; conditions: Mus musculus
[13] = system: SN12K1; experiment: cells; type: functional; conditions: Homo sapiens
[14] = system: P388; experiment: cells; type: functional; conditions: Mus musculus
[15] = molecular target: SWI/SNF-related matrix-associated actin-dependent regulator of chromatin subfamily A member 2 (Homo sapiens, UniProt P51531); experiment: Luminescence-based cell-based high throughput dose response assay to identify activators of the function of SWI/SNF related, matrix associated, actin dependent regulator of chromatin, subfamily a, member 2 (SMARCA2, BRM).; type: functional
[16] = Counterscreen for activators of the function of SWI/SNF related, matrix associated, actin dependent regulator of chromatin, subfamily a, member 2 (SMARCA2, BRM): Luminescence-based cell-based high throughput dose response assay to identify non-selective compounds using the VP16 reporter assay.; type: functional
[17] = luciferase reporter signal suppression in cells – H4 neuroglioma cells, luminescence, dose response (AID 1990); type: functional, cell-based
[18] = Luminescence Cell-Based Dose Response HTS to Identify Inhibitors of 5'UTR Stem-Loop Driven Prion Protein mRNA Translation in H4 Neuroglioblastoma Cells. [Related pubchem assays: 1827 (Project Summary), 1813 (Primary HTS)]; type: functional
[19] = alpha-synuclein stem-loop luciferase translation blockers – H4 neuroglioma cells, luminescence, confirmation (AID 1988); type: functional, cell-based
[20] = molecular target: Paired box protein Pax-8 (Homo sapiens, UniProt Q06710); experiment: PAX8 transcriptional activity inhibition in RMG-I – RMG-I cells, luciferase, cherry-pick, dose response (AID 687027); type: functional, cell-based;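 note: luciferase reporter driven by Pax8 target thyroperoxidase promoter measured by SteadyGlo luminescence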
Sequence of Paired box protein Pax-8 (Q06710 whole entry): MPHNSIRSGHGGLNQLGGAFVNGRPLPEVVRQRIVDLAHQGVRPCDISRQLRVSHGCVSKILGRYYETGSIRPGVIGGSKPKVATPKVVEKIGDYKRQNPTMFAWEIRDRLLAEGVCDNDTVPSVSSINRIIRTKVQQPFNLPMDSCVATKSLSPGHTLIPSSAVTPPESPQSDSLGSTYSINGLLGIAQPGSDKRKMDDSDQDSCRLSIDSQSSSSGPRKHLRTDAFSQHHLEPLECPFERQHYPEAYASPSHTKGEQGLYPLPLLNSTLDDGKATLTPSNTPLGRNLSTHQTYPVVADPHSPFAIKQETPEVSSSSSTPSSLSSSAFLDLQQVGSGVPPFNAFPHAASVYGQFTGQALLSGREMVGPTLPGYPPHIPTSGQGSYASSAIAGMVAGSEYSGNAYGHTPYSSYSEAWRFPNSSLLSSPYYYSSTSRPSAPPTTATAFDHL

T6 sequence (P49327 whole entry): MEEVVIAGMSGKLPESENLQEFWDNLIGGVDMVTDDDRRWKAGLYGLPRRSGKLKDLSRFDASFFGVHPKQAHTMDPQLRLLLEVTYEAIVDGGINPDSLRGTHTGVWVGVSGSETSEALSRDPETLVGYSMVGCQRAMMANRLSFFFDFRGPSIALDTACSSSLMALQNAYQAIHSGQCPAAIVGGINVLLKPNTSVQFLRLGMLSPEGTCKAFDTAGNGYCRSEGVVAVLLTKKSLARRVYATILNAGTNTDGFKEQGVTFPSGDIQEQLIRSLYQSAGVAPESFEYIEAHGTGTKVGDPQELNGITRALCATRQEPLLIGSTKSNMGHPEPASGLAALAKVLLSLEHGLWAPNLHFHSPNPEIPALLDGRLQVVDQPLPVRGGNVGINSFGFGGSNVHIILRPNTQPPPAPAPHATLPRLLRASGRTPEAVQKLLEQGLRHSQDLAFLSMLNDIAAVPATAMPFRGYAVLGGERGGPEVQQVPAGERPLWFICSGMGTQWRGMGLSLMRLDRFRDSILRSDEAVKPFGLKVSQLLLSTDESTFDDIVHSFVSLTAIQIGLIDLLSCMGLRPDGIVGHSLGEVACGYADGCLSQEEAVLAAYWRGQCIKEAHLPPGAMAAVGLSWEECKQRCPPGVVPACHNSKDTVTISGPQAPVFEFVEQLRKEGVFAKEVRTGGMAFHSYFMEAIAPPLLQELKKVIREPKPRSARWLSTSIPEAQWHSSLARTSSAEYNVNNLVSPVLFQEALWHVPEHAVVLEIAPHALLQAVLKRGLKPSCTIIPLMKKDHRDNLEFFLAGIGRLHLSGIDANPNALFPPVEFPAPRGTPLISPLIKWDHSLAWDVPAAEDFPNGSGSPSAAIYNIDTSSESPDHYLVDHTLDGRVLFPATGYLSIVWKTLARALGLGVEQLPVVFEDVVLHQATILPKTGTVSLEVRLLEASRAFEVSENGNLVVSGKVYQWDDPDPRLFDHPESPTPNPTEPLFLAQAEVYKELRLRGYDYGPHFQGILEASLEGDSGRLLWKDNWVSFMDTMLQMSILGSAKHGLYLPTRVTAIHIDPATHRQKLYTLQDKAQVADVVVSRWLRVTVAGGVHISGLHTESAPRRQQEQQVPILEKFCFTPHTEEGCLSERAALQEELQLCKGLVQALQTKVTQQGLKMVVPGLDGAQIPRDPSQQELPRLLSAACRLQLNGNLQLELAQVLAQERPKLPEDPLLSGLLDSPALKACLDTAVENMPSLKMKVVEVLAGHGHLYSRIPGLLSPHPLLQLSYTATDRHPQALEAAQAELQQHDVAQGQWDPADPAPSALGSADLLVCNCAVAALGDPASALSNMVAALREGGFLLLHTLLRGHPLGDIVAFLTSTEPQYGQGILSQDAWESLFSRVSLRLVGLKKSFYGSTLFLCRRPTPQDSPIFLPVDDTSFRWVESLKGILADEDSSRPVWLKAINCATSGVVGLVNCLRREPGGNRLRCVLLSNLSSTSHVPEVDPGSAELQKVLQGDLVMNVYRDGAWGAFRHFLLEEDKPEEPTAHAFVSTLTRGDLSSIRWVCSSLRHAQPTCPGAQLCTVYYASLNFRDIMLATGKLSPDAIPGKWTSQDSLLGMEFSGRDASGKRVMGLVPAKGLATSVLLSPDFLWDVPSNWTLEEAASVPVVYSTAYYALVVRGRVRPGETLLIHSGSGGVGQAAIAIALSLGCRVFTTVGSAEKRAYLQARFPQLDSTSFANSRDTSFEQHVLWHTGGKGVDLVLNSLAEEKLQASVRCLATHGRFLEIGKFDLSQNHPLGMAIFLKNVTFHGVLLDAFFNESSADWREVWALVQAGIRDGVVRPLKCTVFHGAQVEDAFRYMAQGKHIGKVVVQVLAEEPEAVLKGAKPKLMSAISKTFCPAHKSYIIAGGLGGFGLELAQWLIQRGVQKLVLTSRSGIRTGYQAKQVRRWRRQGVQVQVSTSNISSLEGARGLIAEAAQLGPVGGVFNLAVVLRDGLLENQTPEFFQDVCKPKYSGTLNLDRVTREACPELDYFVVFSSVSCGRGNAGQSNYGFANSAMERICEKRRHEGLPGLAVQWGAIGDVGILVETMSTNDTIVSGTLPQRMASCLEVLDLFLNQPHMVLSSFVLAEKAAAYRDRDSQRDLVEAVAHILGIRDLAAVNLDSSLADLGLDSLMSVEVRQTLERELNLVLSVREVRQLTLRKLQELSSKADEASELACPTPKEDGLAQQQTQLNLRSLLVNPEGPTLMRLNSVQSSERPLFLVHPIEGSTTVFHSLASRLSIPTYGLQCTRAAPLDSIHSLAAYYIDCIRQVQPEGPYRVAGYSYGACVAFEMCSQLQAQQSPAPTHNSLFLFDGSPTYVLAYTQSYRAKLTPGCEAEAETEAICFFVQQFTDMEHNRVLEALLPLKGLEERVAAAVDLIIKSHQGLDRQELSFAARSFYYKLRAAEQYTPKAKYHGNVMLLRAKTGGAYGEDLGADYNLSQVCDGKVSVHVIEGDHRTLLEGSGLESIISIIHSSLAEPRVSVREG
Sequence of SWI/SNF-related matrix-associated actin-dependent regulator of chromatin subfamily A member 2 (P51531 whole entry): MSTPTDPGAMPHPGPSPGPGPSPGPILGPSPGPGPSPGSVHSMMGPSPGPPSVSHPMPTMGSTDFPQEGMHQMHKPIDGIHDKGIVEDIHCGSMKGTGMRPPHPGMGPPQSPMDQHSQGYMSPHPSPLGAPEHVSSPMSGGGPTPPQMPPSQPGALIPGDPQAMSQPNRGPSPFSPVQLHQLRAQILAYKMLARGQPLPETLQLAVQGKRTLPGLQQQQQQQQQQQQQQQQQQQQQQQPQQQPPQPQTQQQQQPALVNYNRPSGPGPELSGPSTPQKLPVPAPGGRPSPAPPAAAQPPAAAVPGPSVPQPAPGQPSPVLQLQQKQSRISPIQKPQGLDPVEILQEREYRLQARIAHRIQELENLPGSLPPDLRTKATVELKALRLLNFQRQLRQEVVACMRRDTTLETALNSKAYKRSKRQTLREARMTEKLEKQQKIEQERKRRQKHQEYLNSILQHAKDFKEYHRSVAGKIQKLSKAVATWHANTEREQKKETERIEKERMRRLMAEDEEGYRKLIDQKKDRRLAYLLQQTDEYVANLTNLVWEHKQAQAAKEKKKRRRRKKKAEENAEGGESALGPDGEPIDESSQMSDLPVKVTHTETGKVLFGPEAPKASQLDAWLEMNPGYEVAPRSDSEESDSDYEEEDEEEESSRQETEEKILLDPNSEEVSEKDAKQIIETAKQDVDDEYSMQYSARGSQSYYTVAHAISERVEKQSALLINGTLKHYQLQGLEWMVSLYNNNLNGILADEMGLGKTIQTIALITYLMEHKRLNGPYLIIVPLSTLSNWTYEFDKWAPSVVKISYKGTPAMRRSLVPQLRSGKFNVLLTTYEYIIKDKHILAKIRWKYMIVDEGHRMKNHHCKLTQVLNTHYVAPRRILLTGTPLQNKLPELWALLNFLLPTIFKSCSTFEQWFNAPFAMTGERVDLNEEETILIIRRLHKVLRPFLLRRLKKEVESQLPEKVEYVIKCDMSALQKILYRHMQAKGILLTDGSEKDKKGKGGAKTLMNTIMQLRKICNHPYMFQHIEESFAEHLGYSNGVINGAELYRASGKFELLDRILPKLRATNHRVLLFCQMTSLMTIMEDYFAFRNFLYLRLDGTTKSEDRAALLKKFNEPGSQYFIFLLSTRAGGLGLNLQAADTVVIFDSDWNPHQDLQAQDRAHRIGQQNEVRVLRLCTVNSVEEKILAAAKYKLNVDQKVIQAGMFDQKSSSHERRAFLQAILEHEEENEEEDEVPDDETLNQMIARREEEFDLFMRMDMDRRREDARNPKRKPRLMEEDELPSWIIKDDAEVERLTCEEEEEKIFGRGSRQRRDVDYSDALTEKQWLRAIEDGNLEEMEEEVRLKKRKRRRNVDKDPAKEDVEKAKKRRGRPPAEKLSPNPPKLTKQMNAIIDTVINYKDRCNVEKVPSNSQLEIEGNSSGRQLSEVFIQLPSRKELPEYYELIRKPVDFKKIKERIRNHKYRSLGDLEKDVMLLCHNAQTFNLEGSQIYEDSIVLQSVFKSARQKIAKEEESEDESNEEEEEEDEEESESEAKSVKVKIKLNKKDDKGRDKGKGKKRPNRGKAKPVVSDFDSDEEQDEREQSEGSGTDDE
T5 sequence (Q79MP6 whole entry): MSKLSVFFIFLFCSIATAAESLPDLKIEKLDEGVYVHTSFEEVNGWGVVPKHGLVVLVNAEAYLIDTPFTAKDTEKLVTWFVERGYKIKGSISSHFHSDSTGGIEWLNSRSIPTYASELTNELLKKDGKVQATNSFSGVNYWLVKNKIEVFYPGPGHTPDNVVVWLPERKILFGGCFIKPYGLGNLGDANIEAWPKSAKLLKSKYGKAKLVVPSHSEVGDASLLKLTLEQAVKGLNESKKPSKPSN
Sequence of Beta-lactamase (Salmonella choleraesuis (strain SC-B67), UniProt Q5J463) (Q5J463 whole entry): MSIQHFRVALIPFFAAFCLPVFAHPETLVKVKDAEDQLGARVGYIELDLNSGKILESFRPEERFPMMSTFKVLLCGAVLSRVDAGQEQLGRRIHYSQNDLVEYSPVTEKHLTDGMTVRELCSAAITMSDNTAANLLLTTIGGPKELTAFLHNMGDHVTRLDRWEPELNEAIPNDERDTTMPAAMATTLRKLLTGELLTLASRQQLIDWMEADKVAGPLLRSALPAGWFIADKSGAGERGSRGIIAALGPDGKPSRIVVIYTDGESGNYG

SMILES: CC(C)C(=O)Nc1ccc2nn(-c3ccc(F)cc3)nc2c1
- IC50 [1]: 8.48 µM (active)
- IC50 [2]: 3.03 µM (active)
- IC50 [3]: 6.19 µM (active)
- IC50 [4]: 41.3 µM (active)

SMILES: COc1ccccc1C(=O)Nc1nnc(SCC(=O)NCc2ccco2)s1
- IC50 [5]: > 59.6 µM (inactive)
- IC50 [6]: > 59.6 µM (inactive)
- IC50 [7]: > 59.6 µM (inactive)

SMILES: CCn1c(O)c(N=Nc2ccc3ccccc3n2)c2ccccc21
- IC50 [1]: 2.1 µM (active)
- IC50 [2]: 0.857 µM (active)
- IC50 [3]: 1.11 µM (active)
- IC50 [4]: 1.83 µM (active)

SMILES: CCCCC(CC)C(=O)Nc1cc([N+](=O)[O-])ccc1F (stereo not given)
- IC50 [8]: 3.19 µM (active)
- IC50 [9]: 4.44 µM (active)

SMILES: CC(C)(C)C(=O)OCc1ccc(C2=CC(=O)CC(C)(C)C2=O)cc1
- IC50 [8]: 1.28 µM (active)
- IC50 [9]: 3.9 µM (active)

SMILES: O=C(CSc1nnc2scc(-c3ccccc3)n12)c1ccc2c(c1)OCCO2
- EC50 [10]: > 99 µM (inactive)
- EC50 [11]: > 99 µM (inactive)

SMILES: O=C1N[C@H]2[C@H](O)[C@H](O)[C@@H](O)[C@H](O)[C@@H]2c2cc3c(c(O)c21)OCO3 [PANCRATISTATIN]
- GI50 [12]: 0.0406 µM (active)
- GI50 [13]: 0.047 µM (active)
- GI50 [14]: 0.0366 µM (active)

SMILES: COCCN1CCN(c2c(C)c(C)nc3cc(-c4cccc(OC)c4)nn23)CC1
- EC50 [15]: > 91.1 µM (inactive)
- EC50 [16]: > 91.1 µM (inactive)

SMILES: NC(=O)c1ccccc1NC(=O)/C=C/c1c(Cl)cccc1Cl
- IC50 [1]: 21.5 µM (active)
- IC50 [2]: 6.11 µM (active)
- IC50 [3]: > 100 µM (inactive)
- IC50 [4]: > 100 µM (inactive)

SMILES: OC(C1CO1)C(O)C1CO1 (stereo not given)
- GI50 [12]: 9.79 µM (inactive)
- GI50 [13]: 54.7 µM (inactive)
- GI50 [14]: 13.5 µM (inactive)

SMILES: CCCn1c(S)nnc1C(C)C
- IC50 [5]: > 59.6 µM (inactive)
- IC50 [6]: > 59.6 µM (inactive)
- IC50 [7]: > 59.6 µM (inactive)

SMILES: Cc1cc(C(=O)N/N=C/C(Cl)=C/c2ccccc2)c(C)o1
- IC50 [1]: 18.2 µM (active)
- IC50 [2]: 7.77 µM (active)
- IC50 [3]: 22.6 µM (active)
- IC50 [4]: > 100 µM (inactive)

SMILES: CCCn1c(O)c(N=Nc2ccc3ccccc3n2)c2ccccc21
- EC50 [10]: > 99 µM (inactive)
- EC50 [11]: > 99 µM (inactive)

SMILES: COC(=O)N/N=C(\C)c1ccccc1Br
- EC50 [15]: > 91.1 µM (inactive)
- EC50 [16]: > 91.1 µM (inactive)

SMILES: COc1ccc([N+](=O)[O-])cc1NC(=O)C(C)OC(=O)CC1CCCC1 (stereo not given)
- IC50 [8]: 6.83 µM (active)
- IC50 [9]: 5.28 µM (active)

SMILES: CC(C)=CCc1cc(-c2oc3cc(O)cc(O)c3c(=O)c2O)ccc1O [ISOLICOFLAVONOL]
- EC50 [10]: 14 µM (active)
- EC50 [11]: > 99 µM (inactive)

SMILES: COC(=O)c1ccc(NC(=O)Nc2ccc(F)c(Cl)c2)cc1
- IC50 [1]: 48 µM (active)
- IC50 [2]: 6.56 µM (active)
- IC50 [3]: > 100 µM (inactive)
- IC50 [4]: > 100 µM (inactive)

SMILES: CN(C)CCN(C(=O)/C=C/c1cccs1)c1nc2c(F)cc(F)cc2s1
- EC50 [17]: 12.5 µM (active)
- EC50 [18]: 10.4 µM (active)
- EC50 [19]: 8.47 µM (active)
- EC50 [15]: > 91.1 µM (inactive)
- EC50 [16]: > 91.1 µM (inactive)
- AC50 [20]: 8.86 µM (active)

SMILES: O=C1NC(O)CCN1C1OC(CO)C(O)C1O (stereo not given)
- GI50 [12]: > 250 µM (inactive)
- GI50 [13]: > 250 µM (inactive)
- GI50 [14]: > 250 µM (inactive)

SMILES: CC/C=C\C/C=C\C/C=C\CCCCCCCC(=O)OC [METHYL LINOLENATE]
- GI50 [12]: 28.2 µM (inactive)
- GI50 [13]: > 100 µM (inactive)
- GI50 [14]: > 10 µM (inactive)
